Measurements from patent US5103018A, “Mitomycin derivatives” (Kyowa Hakko Kogyo Kabushiki Kaisha, priority 1986, dated 1992).
≈ marks a conversion by molar mass, not a printed value. Like-named read-outs stand apart in the source and are kept apart here.

Experiments:
Escherichia coli ATCC 26 = assay: Minimum inhibitory concentration, agar dilution method, EC; format: cell-based
Excerpt: (§1) Certain Compounds I were selected. Table 3 indicates their anti-bacterial activities in terms of their minimum inhibitory concentration (μg/ml), determined by the agar dilution method effected at a pH of 7.0. In this table, the microorganisms used are abbreviated as follows:
EC: Escherichia coli ATCC 26

Acute toxicity = format: in vivo, mice (ddy); conditions: mouse, in vivo, ip; for LD50 at 336 h: ddy mice, single i.p., 14 days, Behren Korber's method; for selectivity ratio: read-out: (C.I.)* = (LD50/ED50)/[(LD50/ED50) of MMC1]
Description: (§2) Certain compounds were selected from Compounds I. The following Table 4 indicates anti-tumour activity against Sarcoma 180 solid tumour (ED50), acute toxicity (LD50) and effects on the peripheral leucocytes (WBC4000) of each compound.
Each animal of the test group consisting of 5 ddy mice was once administered (i.p.) with a test compound. […] The LD50 was determined by Behren Korber's method.

in vivo = format: in vivo, mice (ddy strain); conditions: mouse, in vivo, ip; read-out: (WBC4000/ED50)* = (WBC4000/ED50)/[(WBC4000/ED50) of MMC1]
Description: as §2
(4) Effect upon the number of the peripheral leucocytes:
Sarcoma 180 solid tumour cells (5×10^6) were subcutaneously implanted into the right armpit of each mouse (body weight 20±2 g) of a group consisting of 5 male mice (ddy strain). 24 hours after implantation,a test compound was abdominally administered to each mouse. 4 days later, blood (each 0.02 ml) was collected from the suborbital plexus vein of each tumour-carrying mouse. The collected sample of blood was dispersed in 9.98 ml of Cell-kit Seven solution. One drop of saponin solution was added to the sample to dissolve erythrocytes and then a microcell counter was used to measure the number of leucocytes. On graph paper, the number of leucocytes was indicated on the y-axis by an arithmetic scale and the does of the test compound was indicated on the x-axis by a logarithmic scale.
The relationship between the number of peripheral leucocytes and the dosage of the test compound was plotted to obtain WBC4000 viz. the dosage corresponding to […] per mm^3 (about half of the number of leucocytes of normal mice).

[1] = tested on: Klebsiella pneumoniae ATCC 10031; assay: microbe, parasite or virus in culture; format: cell-based; conditions: ATCC10031, pH 7, read-out: minimum inhibitory concentration, KP
Excerpt: Certain Compounds I were selected. […] In this table, the microorganisms used are abbreviated as follows:
KP: Klebsiella pneumoniae ATCC 10031

Sarcoma 180 solid tumour = assay: animal or person; format: in vivo, mice (ddy strain); conditions: Mus musculus, Sarcoma-180, ip, 168 h, read-out: ED50 ip
Excerpt: as §2
(1) Effect against Sarcoma 180 solid tumour:
5×10^6 cells of Sarcoma 180 solid tumour cells were abdominally implanted into male mice of ddy strain. 7 days after this, ascites cells were sampled. The cells were washed once with a sterilized physiological solution of sodium chloride and were used to prepare a cell suspension containing 5×10^7 cells per ml. On each occasion, 0.1 ml of the cell suspension was subcutaneously implanted into the right armpit of a male mouse (ddy strain; body weight 20±2 g). 24 hours after the implantation of the tumour cells, the test compound which was dissolved in a physiological solution of sodium chloride with or without addition of Tween 80 was abdominally administered to each mouse of a group consisting of 5 animals at a does of 0.1-0.2 ml. The anti-tumour activity was determined as follows:
7 days after the implantation, the major axis (a) and the minor axis (b) of the tumour were measured to calculate a value of "a×b^2 /2" which corresponds to the volume of the tumour. The anti-tumour activity was expressed by T/C viz. the ratio of the volume of the tumours (T) of the group of animals administered with the test compound to the corresponding volume of tumours (C) of the untreated animals.
(2) Determination of ED50 :
The term ED50 denotes the administered amount needed for reducing the volume of Sarcoma 180 solid tumours in the animals to 50% on the basis of the corresponding volume of Sarcoma 180 solid tumours in control (untreated) animals.
On graph paper, T/C was indicated by an arithmetic scale on the longitudinal axis and the administered amount of test compound was indicated by a logarithmic scale on the lateral axis.

[2] = tested on: Staphylococcus aureus ATCC 6583P; assay: Minimum inhibitory concentration, agar dilution method, SA; format: cell-based; conditions: ATCC6583P
Excerpt: as §1
SA: Staphylococcus aureus ATCC 6583P

[3] = tested on: Proteus vulgaris ATCC 6897; assay: Minimum inhibitory concentration, agar dilution method, PV; format: cell-based
Excerpt: as §1
PV: Proteus vulgaris ATCC 6897

[4] = tested on: Streptococcus faecalis ATCC 10541; assay: Minimum inhibitory concentration, agar dilution method, SF; format: cell-based; conditions: Enterococcus faecalis
Excerpt: as §1
SF: Streptococcus faecalis ATCC 10541

Solubility in water = format: physicochemical; conditions: water
P388 Leukemia = assay: Effect upon Leukemia P 388; format: in vivo, mouse (CDF1); conditions: single i.p., 33 days
Description: (5) Effect upon Leukemia P 388:
Ascites cells were collected from P388 Leukemia-carrying mouse (DBA/2) 7 days after the implantation. The number of the cells of P388 Leukemia in the sample was counted. A physiological solution of sodium chloride was sterilized and used to prepare a cell suspension containing 5×10^6 tumour cells per ml. On each occasion, 0.2 ml of the suspension containing 1×10^6 cells was implanted into the abdominal cavity of each mouse (CDF1; body weight 20~25 g). 24 hours after implantation, the test compound was once given to each mouse of a test group consisting of 6 mice by abdominal injection.
The activity of the test samples was determined by the ratio of the average survival days of the treated animals to the average survival days of untreated animals viz. ILS % (Increased Life Span).

[5] = Escherichia coli, ATCC26, pH 7, read-out: minimum inhibitory concentration, EC
[6] = Staphylococcus aureus, pH 7, read-out: minimum inhibitory concentration, SA
[7] = Proteus vulgaris, ATCC6897, pH 7, read-out: minimum inhibitory concentration, PV
[8] = ATCC10541, pH 7, read-out: minimum inhibitory concentration, SF

Row | Structure (SMILES) | MIC (Escherichia coli ATCC 26; [5]) | LD50 at 336 h (Acute toxicity) | selectivity ratio (Acute toxicity) | selectivity ratio (in vivo) | MIC [1] | ED50 (Sarcoma 180 solid tumour) | MIC [2, 6] | MIC [3, 7] | MIC [4, 8] | solubility (Solubility in water) | ILS* (ratio of ILS % to that of mitomycin C) (P388 Leukemia; dose 50 mg/kg) | ILS* (ratio of ILS % to that of mitomycin C) (P388 Leukemia; dose 20.3 mg/kg) | ILS* (ratio of ILS % to that of mitomycin C) (P388 Leukemia; dose 3.13 mg/kg) | MIC (Escherichia coli ATCC 26; ATCC26, agar dilution method, pH 7.0, Escherichia coli, read-out: minimum inhibitory concentration, EC) | MIC ([2]; agar dilution method, pH 7.0, Staphylococcus aureus, read-out: minimum inhibitory concentration, SA) | MIC ([3]; ATCC6897, agar dilution method, pH 7.0, Proteus vulgaris, read-out: minimum inhibitory concentration, PV) | MIC ([4]; ATCC10541, agar dilution method, pH 7.0, Streptococcus faecalis, read-out: minimum inhibitory concentration, SF) | ILS* (ratio of ILS % to that of mitomycin C) (P388 Leukemia; dose 25 mg/kg)
1 | CO[C@@]12[C@H](COC(N)=O)C3=C(C(=O)C(C)=C(NCCSSCCSC(C)=O)C3=O)N1C[C@@H]1N[C@@H]12 [Compound 33, 7-N-[2-[[2-(acetylthio)ethyl]dithio]ethyl]mitomycin C] | > 40 µg/mL | 4.7 mg/kg | 0.36 | 1.27 | 0.63 µg/mL (≈ 1.19 µM) | 5.6 mg/kg | 0.078 µg/mL (≈ 0.148 µM) | 0.63 µg/mL (≈ 1.19 µM) | 0.039 µg/mL (≈ 0.0738 µM) |  |  |  |  |  |  |  |  | 
2 | CO[C@@]12[C@H](COC(N)=O)C3=C(C(=O)C(C)=C(NCCSSCCNC(=O)[C@@H](N)CCC(=O)O)C3=O)N1C[C@@H]1N[C@@H]12 [Compound 9, 7-N-[2-[[2-(N^2 -L-glutamino)ethyl]dithio]ethyl]mitomycin C] |  |  |  |  |  | 7.7 mg/kg |  |  |  | > 20 mg/mL |  |  |  |  |  |  |  | 
3 | CO[C@@]12[C@H](COC(N)=O)C3=C(C(=O)C(C)=C(NCCSSCCCCNC(=O)CC[C@H](N)C(=O)O)C3=O)N1C[C@@H]1N[C@@H]12 [Compound 5, 7-N-[2-[[4-(N^5 -L-glutamino)butyl]dithio]ethyl]mitomycin C] |  | 30 mg/kg | 1.66 | 3.21 | 0.8 µg/mL (≈ 1.28 µM) | 8.4 mg/kg | 1.6 µg/mL (≈ 2.55 µM) | 1.6 µg/mL (≈ 2.55 µM) | 1.6 µg/mL (≈ 2.55 µM) | > 20 mg/mL |  |  |  |  |  |  |  | 
4 | CC1=C(NCCSSCCNC(=O)CC[C@H](N)C(=O)O)C(=O)C2=C(C1=O)N1C[C@H]3[C@H](N3C)[C@]1(O)[C@H]2COC(N)=O (stereo partly drawn) [Compound 2, 7-N-[2-[[2-(N^5 -L-glutamino)ethyl]dithio]ethyl]mitomycin D] |  | 90 mg/kg | 1.55 | 2.14 | > 100 µg/mL | 18 mg/kg | 50 µg/mL (≈ 83.5 µM) | 25 µg/mL (≈ 41.8 µM) | 100 µg/mL (≈ 167 µM) | > 5 mg/mL | > 1.34 |  |  |  |  |  |  | 
5 | CO[C@@]12[C@H](COC(N)=O)C3=C(C(=O)C(C)=C(NCCSSCCNC(=O)c4cc(=O)[nH]c(=O)[nH]4)C3=O)N1C[C@@H]1N[C@@H]12 [Compound 14, 7-N-[2-[(2-orotamidoethyl)dithio]ethyl]mitomycin C] |  | 45 mg/kg | 1.68 | 1.2 |  | 11.5 mg/kg |  |  |  |  |  | > 2.60 |  |  |  |  |  | 
6 | CO[C@@]12[C@H](COC(N)=O)C3=C(C(=O)C(C)=C(NCCSSCCNC(=O)CC[C@@H](N)C(=O)O)C3=O)N1C[C@@H]1N[C@@H]12 [Compound 3, 7-N-[2-[[2-(N^5 -D-glutamino)ethyl]dithio]ethyl]mitomycin C] | 50 µg/mL (≈ 83.5 µM) | 22.5 mg/kg | 1.46 | 3.02 | 0.8 µg/mL (≈ 1.34 µM) | 5.7 mg/kg | 1.6 µg/mL (≈ 2.67 µM) | 0.8 µg/mL (≈ 1.34 µM) | 3.1 µg/mL (≈ 5.18 µM) | > 20 mg/mL |  |  |  |  |  |  |  | 
7 | CO[C@@]12[C@H](COC(N)=O)C3=C(C(=O)C(C)=C(NCCSSCCCNC(=O)CC[C@H](N)C(=O)O)C3=O)N1C[C@@H]1N[C@@H]12 [Compound 4, 7-N-[2-[[3-(N^5 -L-glutamino)propyl]dithio]ethyl]mitomycin C] | 250 µg/mL (≈ 408 µM) | 22.5 mg/kg | 1.52 | 1.27 | 0.8 µg/mL (≈ 1.31 µM) | 5.1 mg/kg | 1.6 µg/mL (≈ 2.61 µM) | 3.1 µg/mL (≈ 5.06 µM) | 3.1 µg/mL (≈ 5.06 µM) | > 20 mg/mL |  |  |  |  |  |  |  | 
8 | CO[C@@]12[C@H](COC(N)=O)C3=C(C(=O)C(C)=C(NCCSSCCC(=O)NC[C@H](O)c4ccc(O)c(O)c4)C3=O)N1C[C@@H]1N[C@@H]12 [Compound 32] |  | 30 mg/kg | 1.56 | 2.39 |  | 7.1 mg/kg |  |  |  |  |  |  | > 1.44 |  |  |  |  | 
9 | CO[C@@]12[C@H](COC(N)=O)C3=C(C(=O)C(C)=C(NCCSSCCNC(=O)/C=C(C)/C=C/C=C(C)/C=C/C4=C(C)CCCC4(C)C)C3=O)N1C[C@@H]1N[C@@H]12 [Compound 15] |  | 16.9 mg/kg | 0.82 | 3 | 2.5 µg/mL (≈ 3.32 µM) | 7.4 mg/kg | 0.078 µg/mL (≈ 0.104 µM) | 1.3 µg/mL (≈ 1.73 µM) | 0.63 µg/mL (≈ 0.838 µM) |  |  |  |  |  |  |  |  | 
10 | CO[C@@]12[C@H](COC(N)=O)C3=C(C(=O)C(C)=C(NCCSSCCC(N)=O)C3=O)N1C[C@@H]1N[C@@H]12 [Compound 21, 7-N-[2-[(2-carbamoylethyl)dithio]ethyl]mitomycin C] |  | 18.8 mg/kg | 0.68 | 1.01 | 1.3 µg/mL (≈ 2.61 µM) | 11.8 mg/kg | 0.63 µg/mL (≈ 1.27 µM) | 5 µg/mL (≈ 10 µM) | 1.3 µg/mL (≈ 2.61 µM) |  |  |  |  |  |  |  |  | 
11 | CO[C@@]12[C@H](COC(N)=O)C3=C(C(=O)C(C)=C(NCCSSCc4cn([C@H]5C[C@H](O)[C@@H](CO)O5)c(=O)[nH]c4=O)C3=O)N1C[C@@H]1N[C@@H]12 [Compound 39, 7-N-[2-[[(2'-deoxyuridin-5-yl)methyl]dithio]ethyl]mitomycin C] |  | 75 mg/kg | 1.37 | 1.5 |  | 34.7 mg/kg |  |  |  |  | 1.83 |  |  |  |  |  |  | 
12 | CO[C@@]12[C@H](COC(N)=O)C3=C(C(=O)C(C)=C(N)C3=O)N1C[C@@H]1N[C@@H]12 [MM-C, mitomycin C, reference compound] |  |  |  |  |  |  |  |  |  |  |  |  |  | 10 µg/mL (≈ 29.9 µM) | 0.04 µg/mL (≈ 0.12 µM) | 0.02 µg/mL (≈ 0.0598 µM) | 0.08 µg/mL (≈ 0.239 µM) | 
13 | CC(=O)NCCSSCCNC1=C(C)C(=O)C2=C(C1=O)[C@H](COC(N)=O)[C@@]1(O)[C@@H]3[C@H](CN21)N3C (stereo partly drawn) [Compound 17, 7-N-[2-[(2-acetamidoethyl)dithio]ethyl]mitomycin D] |  | 60 mg/kg | 2.73 | 2.6 |  | 7.3 mg/kg | > 50 µg/mL | > 50 µg/mL | 25 µg/mL (≈ 48.9 µM) |  |  |  |  |  |  |  |  | > 1.78
